According to US7084166B2, “Bis-heterocyclic compounds with antitumour and chemosensitising activity” (Sigma-Tau Industrie Farmaceutichee Riunite S.p.A., priority 2000, dated 2006):

Assays:
Format in all cases: cell-based
[1] = system: NB4 cells (acute promyelocytic leukaemia); assay: Cell differentiation by reduction of nitroblue tetrazolium (NBT), with suboptimal ATRA; conditions: for AC50: Homo sapiens, NB-4, 72 h, 3 days, read-out: AC50 (concentration at which the tested compound induces 50% of cell differentiation); for AC50 / fold induction (differentiation, compound + ATRA vs ATRA alone): combined with suboptimal doses of ATRA, NBT
Description: The first line used was the NB4 cell line, bearing the t(15;17) chromosomal translocation which generates the fusion protein PML/RARα. This line is very sensitive to the differentiative action of pharmacological doses of ATRA (10^−7–10^−6 M).
(§1) The HL60 and NB4 cells were seeded at a density of 150,000 cells/ml in RPMI 1640 medium containing 10% foetal calf serum, and were treated with the tested compounds in the presence and absence of suboptimal doses of ATRA (5–10 nM for NB4 and 0.5 μM for HL60, respectively) in the dark, and returned to the incubator for 3 days without ever replacing the culture medium.
(§2) To analyse the differentiative effect of the tested compounds vs ATRA, on the third day of treatment 500,000 viable cells were harvested from each sample, centrifuged for 10 minutes at 1.000 rpm and resuspended in 1 ml of RPMI 1640 medium containing 10% foetal calf serum, 1 mg/ml of nitroblue tetrazolium (NBT) and 100 ng of PMA (phorbol 12-myristate 13-acetate).
(§3) The cells thus resuspended were incubated in the dark at 37° C. for 60 minutes.
(§4) At the end of the incubation, the cell suspension was centrifuged for 10 minutes at 10,000 rpm; the pellet obtained was then resuspended in 1 ml of PBS containing 10% Triton X-100 and sonicated to lysis.
(§5) Spectrophotometric readings of the samples were then taken at a wavelength of 540 nm: samples containing differentiated cells shifted towards a violet colour, whereas control samples and/or samples with non-differentiated cells were colourless or, at any rate, much less intensely coloured.
(§6) The AC50 (Activating Concentration) is the concentration at which the tested compound induces 50% of cell differentiation.
(§7) Fold Induction is the increase in the differentiation value of the cell sample treated with the tested compound +ATRA vs the value of the cell sample treated with ATRA alone. This value provides an indication of the ability (potency) of the tested compound to enhance ATRA induced cell differentiation.

[2] = system: HL60 cells (acute promyelocytic leukaemia); assay: as above; conditions: combined with suboptimal doses of ATRA; for AC50: Homo sapiens, HL-60, 72 h, 3 days, read-out: AC50 (concentration at which the tested compound induces 50% of cell differentiation)
Description: (§8) The second line used was the HL60 cell line which responds to ATRA (but is less sensitive than the NB4 cell line).
as §1, §2, §3, §4, §5, §6, §7

[3] = system: NB4 cells (acute promyelocytic leukaemia); assay: Flow cytofluorimetric analysis of cell cycle; design: APOPTOSIS: unit not given here
Description: The first line used was the NB4 cell line, bearing the t(15;17) chromosomal translocation which generates the fusion protein PML/RARα.
(§9) To assess the effect of the tested compounds on the various phases of the cell cycle, on the third day of treatment 500,000 cells were harvested, centrifuged at 1,000 rpm for 10 minutes, washed twice in PBS w/o (PBS without calcium and magnesium) and fixed in a solution of 50% PBS w/o+50% methanol/acetone (1:4 v/v) for at least 1 hour; the cells were then centrifuged as described, washed in PBS w/o and centrifuged again.
(§10) 200 μl of propidium iodide 100 μg/ml and 200 μl of RNase 150 kU/mg were then added to the cell pellet.
(§11) After a 30-min incubation in the dark at room temperature, the samples were analysed by flow cytofluirometry.

[4] = system: HL60 cells (acute promyelocytic leukaemia); assay: Flow cytofluorimetric analysis of cell cycle; conditions: day 3
Description: as §8, §1, §9, §10, §11

[5] = compound 1 μM + ATRA 0.01 μM, day 3
[6] = compound 1 μM + ATRA 0.01 μM, day 3, listed as ST1346
[7] = compound 5 μM + ATRA 0.01 μM, day 3
[8] = compound 5 μM + ATRA 0.01 μM, day 3, listed as ST1346
[9] = compound 10 μM + ATRA 0.01 μM, day 3
[10] = compound 10 μM + ATRA 0.01 μM, day 3, listed as ST1346
[11] = compound 50 μM + ATRA 0.01 μM, day 3
[12] = compound 50 μM + ATRA 0.01 μM, day 3, listed as ST1346

## OCCCCC(c1c[nH]c2ccccc12)c1c[nH]c2ccccc12 [ST 1346, 5-hydroxy-1,1-di-(indol-3-yl)-pentane]
[1]
  AC50: 1.5 ± 0.5 µM
  fold induction (differentiation, compound + ATRA vs ATRA alone): 3.0
[1]; doses 1, 5, 10, 50 μM with suboptimal ATRA
  dose reaching maximal effect in sensitising ATRA-induced terminal differentiation: 10 µM
[2]
  AC50: 14.8 ± 1.6 µM
  fold induction (differentiation, compound + ATRA vs ATRA alone): 2.7
[3]; [5]
  APOPTOSIS: 17.5
  G0/G1: 57.1
  G2/M: 13.9
  S: 29.0
[3]; [6]
  APOPTOSIS: 14
  G0/G1: 61.5
  G2/M: 12.9
  S: 25.6
[3]; [7]
  APOPTOSIS: 17.0
  G0/G1: 58.4
  G2/M: 13.9
  S: 27.7
[3]; [8]
  APOPTOSIS: 13.5
  G0/G1: 58.0
  G2/M: 13.5
  S: 28.5
[3]; [9]
  APOPTOSIS: 15.0
  G0/G1: 58.4
  G2/M: 13.0
  S: 28.6
[3]; [10]
  APOPTOSIS: 13
  G0/G1: 60.0
  G2/M: 12.6
  S: 27.4
[3]; [11]
  APOPTOSIS: 10.0
  G0/G1: 82.2
  G2/M: 8.0
  S: 9.8
[3]; [12]
  APOPTOSIS: 17
  G0/G1: 84.2
  G2/M: 6.3
  S: 9.5
[3]; compound alone 1 μM, day 3
  APOPTOSIS: 23
  G0/G1: 46.9
  G2/M: 15.7
  S: 37.4
[3]; compound alone 5 μM, day 3
  APOPTOSIS: 24
  G0/G1: 47.4
  G2/M: 13.8
  S: 38.8
[3]; compound alone 10 μM, day 3
  APOPTOSIS: 23
  G0/G1: 50.0
  G2/M: 14.7
  S: 35.3
[3]; compound alone 50 μM, day 3
  APOPTOSIS: 46
  G0/G1: 59.4
  G2/M: 7.3
  S: 33.3
[3]; compound alone (ST 1346: high doses)
  effect of the compound alone on cell cycle and apoptosis (in words): induce growth arrest (in the G0/G1 phase of the cell cycle) and apoptosis

## Cn1cc(C(CCCCO)c2cn(C)c3ccccc23)c2ccccc21 [ST 1974, 5,5-bis-(1-methyl-1H-indol-3-yl)-1 Pentanol]
[1]
  AC50: 7.8 ± 2.6 µM
  fold induction (differentiation, compound + ATRA vs ATRA alone): 1.8
[2]
  AC50: 9.5 ± 2.6 µM
  fold induction (differentiation, compound + ATRA vs ATRA alone): 1.6
[4]; compound 1 μM + ATRA 0.5 μM
  G0/G1: 62.0
  G2/M: 11.7
  S: 26.3
[4]; compound 5 μM + ATRA 0.5 μM
  G0/G1: 63.8
  G2/M: 10.5
  S: 25.7
[4]; compound 10 μM + ATRA 0.5 μM
  G0/G1: 65.4
  G2/M: 10.5
  S: 24.1
[4]; compound 50 μM + ATRA 0.5 μM
  G0/G1: 81.8
  G2/M: 10.6
  S: 7.6
[4]; compound alone 1 μM
  G0/G1: 58.9
  G2/M: 11.1
  S: 30
[4]; compound alone 5 μM
  G0/G1: 59.3
  G2/M: 11.4
  S: 29.3
[4]; compound alone 10 μM
  G0/G1: 57.8
  G2/M: 12.2
  S: 30
[4]; compound alone 50 μM
  G0/G1: 67.7
  G2/M: 12.3
  S: 20
